Measurements published in patent publication US20080234324A1, “Piperidine Derivatives as Gcs Inhibitors” (priority 2004, published 2008).

What was measured:
[1] = target: T1, non-lysosomal-β-glucocerebrosidase (Homo sapiens, UniProt Q9HCG7); experiment: Inhibition of non-lysosomal-β-glucocerebrosidase; format: biochemical; conditions: whole cell extracts of MCF7 as enzyme source; 5 mM 4-MU β-glucoside; pH 5.8
T1 construct: whole cell extracts of MCF7 (a human breast carcinoma cell line) was used as the source of the enzyme; endogenous in cells; host or cells: MCF7 whole cell extract
T1 sequence (Q9HCG7 1-927): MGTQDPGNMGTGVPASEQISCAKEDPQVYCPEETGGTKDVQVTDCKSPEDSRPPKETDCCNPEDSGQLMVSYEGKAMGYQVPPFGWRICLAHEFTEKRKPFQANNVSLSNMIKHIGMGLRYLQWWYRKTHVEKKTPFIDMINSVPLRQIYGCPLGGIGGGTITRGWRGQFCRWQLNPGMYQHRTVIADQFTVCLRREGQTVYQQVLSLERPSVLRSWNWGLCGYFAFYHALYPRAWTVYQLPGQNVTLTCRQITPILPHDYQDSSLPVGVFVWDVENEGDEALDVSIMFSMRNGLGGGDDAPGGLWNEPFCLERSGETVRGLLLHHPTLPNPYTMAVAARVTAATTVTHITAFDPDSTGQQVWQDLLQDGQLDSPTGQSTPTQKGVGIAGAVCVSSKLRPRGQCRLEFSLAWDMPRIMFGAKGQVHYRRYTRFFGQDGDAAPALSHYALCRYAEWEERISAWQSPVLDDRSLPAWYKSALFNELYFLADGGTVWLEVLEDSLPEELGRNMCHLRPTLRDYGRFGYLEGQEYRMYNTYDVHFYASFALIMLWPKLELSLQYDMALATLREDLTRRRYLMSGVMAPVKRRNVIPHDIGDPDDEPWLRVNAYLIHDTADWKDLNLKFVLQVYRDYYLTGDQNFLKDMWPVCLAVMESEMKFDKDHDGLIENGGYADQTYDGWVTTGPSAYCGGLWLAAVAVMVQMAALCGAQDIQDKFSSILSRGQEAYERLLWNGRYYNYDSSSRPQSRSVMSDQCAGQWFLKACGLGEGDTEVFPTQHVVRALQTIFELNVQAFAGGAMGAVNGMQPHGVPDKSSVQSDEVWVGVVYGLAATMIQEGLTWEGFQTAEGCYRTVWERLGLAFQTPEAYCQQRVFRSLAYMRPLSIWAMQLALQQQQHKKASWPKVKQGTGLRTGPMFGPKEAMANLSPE

[2] = target: T2, human recombinant GCS expressed in insect cells (Homo sapiens, UniProt Q16739); experiment: Inhibition of GCS; format: biochemical
T2 construct: made in house; host or cells: insect cells
T2 sequence (Q16739 1-394): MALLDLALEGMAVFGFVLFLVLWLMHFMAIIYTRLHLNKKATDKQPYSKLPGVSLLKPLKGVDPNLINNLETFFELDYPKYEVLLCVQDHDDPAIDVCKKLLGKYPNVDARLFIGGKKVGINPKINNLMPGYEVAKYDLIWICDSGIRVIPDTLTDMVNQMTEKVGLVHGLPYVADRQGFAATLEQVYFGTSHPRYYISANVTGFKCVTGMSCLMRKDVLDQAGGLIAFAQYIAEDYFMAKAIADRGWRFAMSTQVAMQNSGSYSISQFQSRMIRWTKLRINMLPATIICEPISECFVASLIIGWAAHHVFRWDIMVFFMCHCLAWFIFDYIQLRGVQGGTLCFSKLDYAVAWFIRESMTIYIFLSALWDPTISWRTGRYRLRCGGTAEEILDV
Experimental: The assay for inhibition of GCS was performed essentially as described in Platt et al., J. Biol. Chem., (1994), 269, 27108, the enzyme source being human recombinant GCS expressed in insect cells.

OC[C@@H]1[C@H](O)[C@H](O)[C@@H](O)CN1Cc1ccc(OCc2ccccc2)cc1 [Example 1] gave an IC50 [1] of 10 µM and an IC50 [2] of 1.3 µM.
